{"source": "patent US10660855B2", "about": "(priority 2019, dated 2020)", "key": {"[1]": {"assay": "Water-solubility / water-dispersing ability (FIG. 1)", "assay_type": "physicochemical", "details": "FIG. 1, dispersed in water, bottle A vs bottle B"}, "[2]": {"details": "cited from earlier work"}}}
{"substance": "Cannabidiol [CBD]", "values": [{"measurement": "water-dispersing ability", "setting": "[1]", "value": "insoluble in water"}, {"measurement": "half-life", "setting": "[2]; in vivo", "value": "about 9 hours"}, {"measurement": "bioavailability when being used nasally (inhalantly)", "setting": "[2]; nasal (inhalation)", "value": "about 31%"}, {"measurement": "bioavailability when being used orally", "setting": "[2]; oral", "value": "13-19%"}]}
